Data set [1] can be described thus: Water/benzene extraction of the tritiated DHEA-phosphocholine reaction product, phases counted by scintillation. It is filed as physicochemical. How it is done:
A dehydroepiandrosterone(DHEA)-phosphocholine derivative was synthesized as follows: 1 mg of phosphocholine (calcium salt; Sigma Chemical, St. Louis, Mo.) was dissolved in 0.5 ml of formamide (Cat # S-7503; Lot # 55HO257; Sigma Chemical) and 0.5 ml of pyridine (Cat # P-4036; Lot # 55H1489; Sigma Chemical). 0.025 mCi of (1,2,6,7 ^3H(n)-Dehydroepiandrosterone (Cat # NET814; Lot # 3146097; 89.2 Ci/mmol; Dupont, NEN Products, Boston, Mass.) in 0.025 ml of ethanol was added. The reaction was catalyzed by the addition (as the dry solid) of 5 mg of dicyclohexylcarbodiimide (Cat # D-3129; Lot # 34hO647; Sigma Chemical). The reaction mixture was incubated overnight at room temperature. In the morning, 9 ml of water was added and the mixture extracted 3 times with 10 ml portions of benzene. The benzene extracts were combined and aliquots of both phases were counted in a scintillation counter. The results are set forth below:
The aqueous layer was re-extracted with benzene. The second benzene extraction yielded 272 cpm (0.01 M1) as a confirmation.
Free DHEA starting material would have been extracted quantitatively into benzene with this protocol.

The next data set relates to neutral sphingomylenase. In words: Hydrolysis of DHEA-PC by neutral sphingomylenase. It is filed as biochemical. How it is done: DHEA-phosphocholine (DHEA-PC) was synthesized by sequential reaction of DHEA, choline, and water with phosphorous oxychloride. The synthetic product had the same HPLC retention time and the same mass-spectrum as did the endogenous, actual compound. […] When human serum extracts were analyzed, mass fragments were detected at the same retention time as synthetic material.

In data set [2] the test system is cutaneous hypersensitivity immune response. In words: DNCB-induced cutaneous contact hypersensitivity (ear swelling) in mice. The note with it: for Effect on DNCB-induced cutaneous hypersensitivity immune response: 100 μg/day/mouse subcutaneously, twelve-day study, ear rechallenge with 1% DNCB, swelling on days 7–12; for Effect of dexamethasone on the response to the hormone: co-administered with dexamethasone, days 7–12. In kind it is in vivo, mice (Balb/c). How it is done:
The effects of DHEA-PC on cutaneous contact hypersensitivity was studied. In this study, mice (Balb/c) were immunologically challenged with DNCB (2% in ethanol) applied to a 2 cm area on the back. The steroid was injected subcutaneously (100 μg/day/mouse) throughout the twelve-day study period. Ears were rechallenged with DNCB (1% in ethanol) on days 7–12 and swelling was measured daily in order to evaluate the effect on the immune system.

The conditions of data set [3]: J. Med. Chem. 39:2156–2169, 1996; cited from earlier work.
Data set [4] relates to enzyme on lymphocyte cell membrane that cleaves phosphocholine. Put plainly: Lymphocyte cell membrane enzyme that cleaves phosphocholine from other compounds. It is filed as cell-based. The note with it: lymphocytes; data not shown. The text has this: The conjugated therapeutic agents will be at least ten times more water soluble then the original alcohol. This will increase their bioavailability and decrease their metabolism to, e.g., the 3-glycoside in the case of steroids, which should be a major excretion pathway. The decreased glycoside formation will be caused by the presence of the phosphoester at that site. The derivative is not expected to be active prior to hydrolysis of the phospholipid group. […] The activity of this enzyme is stimulated ten-fold by TGF-α (data not shown). Without wishing to be bound by theory, it is believed that use of phospholipid-conjugated antibiotics of the present invention will lead to high concentrations of active agents at the site of an infection by the following mechanism. Lymphocytes are attracted to the site of an infection or inflammation where they release TGF-α, which, in turn, stimulates phospholipid hydrolysis in other subtypes. This same process will lead to local release of an active form of the antibiotic from the phospholipid diester conjugate. Because of the response of the enzyme to local concentrations of TGF-α, there should be a correspondingly high local concentration of the antibiotic. This will lead to effective therapy and lower toxicity.

A short description of data set [5]: First-pass inactivation in the liver after oral administration. The note with it: phosphocholine-derivatized form; stated as believed. The text has this:
Subsequently, only a fraction of a percent of the administered drug is biologically available for function. […] When the phosphocholine moiety is removed by an esterase, such as phospholipase C, sphingomyelinase, etc., then the parent compound will be available for binding and function in the target tissue. Glucuronidation would only occur on its return to the liver after removal of the phosphocholine moiety.

“Also recorded” adds a separate entry of the source.

On to `C[C@]12CC[C@H](OP(=O)([O-])OCC[N+](C)(C)C)CC1=CC[C@@H]1[C@@H]2CC[C@]2(C)C(=O)CC[C@@H]12` [DHEA-PC, DHEA-3-Phosphocholine], for which the “Radioactivity in second benzene extraction” value in data set [1] (0.01 M1, re-extraction of the aqueous layer with benzene) is 272 cpm. Also, the “Radioactivity in aqueous phase” value in data set [1] (0.01 ml aliquot, after 3 extractions with 10 ml benzene, 3H label) is recorded as 10,729 cpm. For the same molecule, the “Radioactivity in benzene phase” value in data set [1] (0.01 ml aliquot, combined benzene extracts, 3H label) was 1,121 cpm. The “Phase in which the reaction product stays (hydrophilic character)” value in data set [1] (water/benzene, free DHEA would have been extracted quantitatively into benzene) is “remains in the aqueous phase”. Further, the “Hydrolysis by neutral sphingomylenase” value with neutral sphingomylenase is “hydrolyzed”. Also, in data set [2], the “Effect on DNCB-induced cutaneous hypersensitivity immune response” value is “potentiated dinitrochlorobenzene-induced sensitization; also recorded: enhanced the cutaneous hypersensitivity immune response” and the “Effect of dexamethasone on the response to the hormone” value (“Effect of dexamethasone” below) is listed as “not suppressed by dexamethasone”.

Take `O=C1N(Cc2ccc(CO)cc2)[C@H](Cc2ccccc2)[C@H](O)[C@@H](O)[C@@H](Cc2ccccc2)N1Cc1ccc(CO)cc1` [DMP-323]: the Aqueous solubility result in data set [3] is “low”.

`C[C@]12CC[C@H](O)CC1=CC[C@@H]1[C@@H]2CC[C@]2(C)C(=O)CC[C@@H]12` [DHEA, dehydroepiandrosterone]: in data set [2], the “Effect on DNCB-induced cutaneous hypersensitivity immune response” value is on record as “similar, high level response” and the “Effect of dexamethasone” value is listed as “not suppressed by dexamethasone”.

Take `C[C@]12CC[C@H](OS(=O)(=O)O)CC1=CC[C@@H]1[C@@H]2CC[C@]2(C)C(=O)CC[C@@H]12` [DHEA-sulfate]: in data set [2], the “Effect on DNCB-induced cutaneous hypersensitivity immune response” value is “similar, high level response” and the “Effect of dexamethasone” value was “not suppressed by dexamethasone”.

With “TGF-α: factor released by lymphocytes that stimulates phospholipid hydrolysis”, in data set [4], the “Stimulation of the activity of the phosphocholine-cleaving enzyme” value is recorded as “ten-fold”.

On to `C[C@]12CC[C@@H](OP(=O)([O-])OCC[N+](C)(C)C)C[C@H]1CC[C@@H]1[C@@H]2CC[C@]2(C)C(=O)CC[C@@H]12`, for which the “Fraction not metabolized at each pass through the liver” value in data set [5] is listed as “about 80%”.

These data come from US7060290B1, “Phosphocholine linked prodrug derivatives” (Supergen, Inc., priority 1999, dated 2006).
